The values below come from patent publication US20170176436A1, “METHODS (AMACR)” (UNIVERSITY OF BATH, priority 2014, published 2017).

Series [1] deals with T1, human recombinant AMACR 1A (Homo sapiens, UniProt Q9UHK6).
T1 construct: made in house
T1 sequence (Q9UHK6 1-382): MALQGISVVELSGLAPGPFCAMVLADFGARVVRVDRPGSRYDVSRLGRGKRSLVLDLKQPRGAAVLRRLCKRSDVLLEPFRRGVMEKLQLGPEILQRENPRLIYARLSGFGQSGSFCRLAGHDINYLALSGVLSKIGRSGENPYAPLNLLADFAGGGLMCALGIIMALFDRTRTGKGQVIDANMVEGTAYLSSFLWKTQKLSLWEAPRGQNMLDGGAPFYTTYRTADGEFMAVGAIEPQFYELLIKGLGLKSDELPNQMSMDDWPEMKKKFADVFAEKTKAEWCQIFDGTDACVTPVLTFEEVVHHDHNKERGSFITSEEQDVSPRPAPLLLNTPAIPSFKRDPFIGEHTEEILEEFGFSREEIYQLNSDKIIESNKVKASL
Description: Colorimetric assay for AMACR, 96-well plate, absorbance at 354 nm. It is filed as biochemical. The method, then: Based on this elimination reaction, a colorimetric assay was developed. […] 2,4-dintrophenol was chosen as the leaving group as the pKa of the acid is similar to that of HF.
The elimination reaction is shown in Reaction Scheme 2 below:
The above assay was transferred into a 96-well plate format with the extent of reaction monitored by absorbance at 354 nm. The reaction was carried out in Na2HPO4—NaOH, pH 7.4 in a total volume of 100 μL containing 8.05 μg (0.17 nmoles) of human recombinant AMACR 1A.
The kinetics assay was carried out in a 96 well plate. Substrate stock solutions (at 2× the final concentration) were prepared by serial dilution in a total volume of 150 μL in phosphate buffer (as already described). This solution (50 μL) was transferred into […], such that three identical wells were prepared. The reaction was initiated by adding a 2× stock solution of enzyme (50 μL per well) to the substrate, mixing and measuring the change in absorbance at 354 nm over a 15 minute time course, with data collected every 60 seconds. The reaction was conducted at ambient room temperature, ca. 25° C. The final concentrations of substrate (in the assay, after adding the enzyme) were: 256.3, 180.9, 113.9, 75.9, 50.6, 33.8, 22.5, 15.0 μM.
Rates were determined by plotting the absorbance vs. time in Microsoft Excel. The initial rate was used before the rate starts to reduce due to substrate depletion and other reasons. The rate in absorbance units/min was derived by fitting a straight line to the points and determining the slope from the y=mx+c equation.
The data was converted into nmol/min/mg using the extinction coefficient,^8 the pathlength (calculated by the plate-reader based on the volume of the reaction; 0.33 cm), and the amount of enzyme determined by UV-visible spectroscopy.^1 Kinetic constants were derived using SigmaPlot 12 with the enzyme kinetics macro function. Fitting assumed a single substrate per active site, two active sites per dimer (one active sites per protein molecule), with three repeats of each rate. […] Kinetic data was also calculated using the Direct Linear Plot^3,4 A similar method (with a different enzyme) has also been described.^10

The target of series [2] is T2, Human AMACR (Homo sapiens, UniProt Q9UHK6).
T2 construct: inferred only from purification by metal-chelate chromatography; made in house; host or cells: E. coli Rosetta2 (DE3)
T2 sequence (Q9UHK6 1-382): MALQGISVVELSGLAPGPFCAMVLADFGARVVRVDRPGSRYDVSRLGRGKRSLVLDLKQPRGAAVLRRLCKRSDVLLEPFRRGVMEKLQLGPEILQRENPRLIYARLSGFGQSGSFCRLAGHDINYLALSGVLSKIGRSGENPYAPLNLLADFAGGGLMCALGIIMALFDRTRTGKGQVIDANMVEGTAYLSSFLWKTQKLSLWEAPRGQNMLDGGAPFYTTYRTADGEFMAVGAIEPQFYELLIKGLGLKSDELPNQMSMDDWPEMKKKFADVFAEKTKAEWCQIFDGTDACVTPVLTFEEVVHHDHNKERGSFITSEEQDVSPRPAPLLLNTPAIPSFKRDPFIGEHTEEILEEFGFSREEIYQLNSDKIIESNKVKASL
Description: AMACR-catalysed elimination reaction of 3-fluoro-2-methylacyl-CoA esters, monitored by 1H and 19F NMR. It counts as biochemical. The method, then: (§1) Human AMACR was expressed in E. coli Rosetta2 (DE3) at 22° C. overnight shaking at 220 r.p.m.^1 Cells (˜2 g) were lysed using the ‘one shot’ in ˜30 mL buffer supplemented with 250u benzonase (Novagen) and stirred with 1.5% (w/v) N-lauroyl-sarcosine at 4° C. for 1 hour. Following centrifugation, enzyme was purified by metal-chelate chromatography, dialysed into 20 mM NaH2PO4—NaOH, pH 7.4 and stored at −80° C.^1,2
(§2) Assays were conducted in buffer containing ^2H2O and 100 μM acyl-CoA substrate as previously described, with negative controls contain heat-inactivated enzyme. ±-Fenoprofenoyl-CoA or 2-methyldecanoyl-CoA was used as known substrates.^1,2 Assays were quenched by heating to 50° C. for 10 minutes before ^1H NMR analysis (500.13 MHz). Conversion of substrates was quantified by conversion of the 2-Me doublet at ca. 1.0 p.p.m. into a singlet.^1,2 Kinetic data was analysed as previously described^1,2 and parameters were obtained using SigmaPlot 12 with the Direct Linear Plot^3,4 and non-linear fitting of Michaelis-Menten parameters.
(§3) The 3S and 3R stereoisomers of the 3-fluoro-2-methylacyl-CoA esters were then incubated with AMACR and the reaction was monitored by ^1H and ^19F NMR. Interconversion of 3S and 3R by chiral inversion was expected to be observed. […] The synthetic product compound was produced from the E-acid, which had the alkene proton at 6.92 p.p.m., whilst the Z-isomer has an alkene proton at 6.09 p.p.m. in the ^1H NMR spectrum. The presence of fluoride was observed as a characteristic signal at −120 p.p.m. in the ^19F spectrum. Increasing amounts of the unsaturated product compound and inorganic fluoride were observed upon incubation of either 3S or 3R with AMACR for longer times. This reaction was not observed in negative controls containing heat-inactivated enzyme. […] This observed irreversibility of the elimination reaction probably results from the high levels of hydration of the fluoride anion.

The target of series [3] is T1, human recombinant AMACR 1A. Description: Measurement of inhibitor potency using the elimination assay (1H NMR). It counts as biochemical. The method, then: Assays were performed as previously described in a total volume of […] in the presence of ^2H2O. using human recombinant AMACR 1A^2. In the following table inhibitor at 100 μM was incubated with enzyme for 10 minutes at room temperature. The reaction was initiated by addition of a stock solution of substrate (2S,3R-3-fluoro-2-methyldecanoyl-CoA) to a final concentration of 100 μM, followed by incubation at 30° C. for 1 hour. The reaction was terminated by heating at ca. 55° C. for 10 minutes. The cooled reaction mixture analysed by ^1H NMR by the appearance of the unsaturated product peak at ca. 1.75 ppm and comparison to the residual substrate peak at 1.1 ppm.^5 Assays were compared to a positive control (no inhibitor) and conversion levels are corrected for levels in negative controls (boiled enzyme). The data in the table is the average of two […] repeats.
Similar assays were also conducted where inhibitor and substrate were added to the enzyme simultaneously.

Series [4] addresses T2, Human AMACR. Description: AMACR chiral inversion reaction of a known substrate, 1H NMR assay. It is filed as biochemical. Here is the method:
as §1, §2

Substrate in series [5]: CCCCCCC[C@@H](F)[C@@H](C)C(=O)SCCNC(=O)CCNC(=O)[C@H](O)C(C)(C)COP(=O)(O)OP(=O)(O)OC[C@H]1O[C@@H](n2cnc3c(N)ncnc32)[C@H](O)[C@@H]1OP(=O)(O)O
Description: AMACR-catalysed elimination reaction of 3-fluoro-2-methylacyl-CoA esters, monitored by 1H and 19F NMR. It is filed as biochemical, human. Particulars: other: elimination reaction; Direct Linear Plot; 1H NMR; pH 7.4. The method, then: as §1, §2, §3

Substrate in series [6]: CCCCCCCCC(C)C(=O)SCCNC(=O)CCNC(=O)[C@H](O)C(C)(C)COP(=O)(O)OP(=O)(O)OC[C@H]1O[C@@H](n2cnc3c(N)ncnc32)[C@H](O)[C@@H]1OP(=O)(O)O
Description: AMACR chiral inversion reaction of a known substrate, 1H NMR assay. It is filed as biochemical, human. Particulars: other: chiral inversion reaction; pH 7.4. The method, then:
as §1, §2

Setting [7] is: elimination of 2,4-dinitrophenoxide, pH 7.4, ca. 25° C., absorbance 354 nm.
The mark [8] stands for this setting: elimination reaction, Direct Linear Plot, 1H NMR.
Where [9] appears, read: inhibitor 100 μM incubated with enzyme 10 minutes at room temperature before substrate, enzyme 0.06 mg/mL, substrate 2S,3R-3-fluoro-2-methyldecanoyl-CoA 100 μM, 30° C. 1 hour.
[10] abbreviates: inhibitor and substrate added to the enzyme simultaneously, enzyme 0.12 mg/mL.

One may read the Km as the concentration of substrate that gives half-maximal velocity. For orientation: Vmax means the rate approached at saturating substrate. As usually defined, the kcat is the number of substrate molecules converted per active site and unit of time at saturation. Consider `CC(COc1ccc([N+](=O)[O-])cc1[N+](=O)[O-])C(=O)SCCNC(=O)CCNC(=O)[C@H](O)C(C)(C)COP(=O)(O)OP(=O)(O)OC[C@H]1O[C@@H](n2cnc3c(N)ncnc32)[C@H](O)[C@@H]1OP(=O)(O)O` (mixture of isomers) [colorimetric substrate, racemic 3-(2,4-dinitrophenoxy)-2-methyl-propanoyl-CoA], for which the “conversion efficiency relative to anti-3-fluoro-2-methyldecanoyl-CoA, as judged by kcat/Km” value in series [1] is around 35%. Also, the “colour produced on incubation with active AMACR” value in series [1] (absent in negative controls using heat-inactivated enzyme) is “intense yellow colour”. Moreover, in series [1] (setting [7]), the Km amounted to 18 µM, the Vmax was 27.61 nmol/min/mg and the turnover number (kcat) was found to be 0.023 s⁻¹.
As to `CCCCCCC[C@@H](F)[C@H](C)C(=O)SCCNC(=O)CCNC(=O)[C@H](O)C(C)(C)COP(=O)(O)OP(=O)(O)OC[C@H]1O[C@@H](n2cnc3c(N)ncnc32)[C@H](O)[C@@H]1OP(=O)(O)O` [Compound 5, (2S,3R)-3-Fluoro-2-methyldecanoic-CoA], on Human AMACR [2] (setting [8]), the Michaelis constant (Km) amounted to 21 µM, the Vmax was 96.5 nmol·min^−1·mg polypeptide^−1 and the kcat stood at 0.0758 s⁻¹.
On to `CCCCCCC[C@@H](F)[C@@H](C)C(=O)SCCNC(=O)CCNC(=O)[C@H](O)C(C)(C)COP(=O)(O)OP(=O)(O)OC[C@H]1O[C@@H](n2cnc3c(N)ncnc32)[C@H](O)[C@@H]1OP(=O)(O)O` [Compound 11, (2R,3R)-3-Fluoro-2-methyldecanoyl-CoA], for which, at Human AMACR [2] (setting [8]), the Vmax is reported as ~50.6 nmol·min^−1·mg polypeptide^−1. Besides, the “background conversion in negative controls (non-enzymatic elimination)” value at Human AMACR [2] (negative controls with heat-inactivated enzyme) is “significant background conversion”.
For `CC(C(=O)SCCNC(=O)CCNC(=O)C(O)C(C)(C)COP(=O)(O)OP(=O)(O)OCC1OC(n2cnc3c(N)ncnc32)C(O)C1OP(=O)(O)O)c1cccc(Oc2ccccc2)c1` (stereo not shown) [Fenoprofenoyl-CoA], in series [3] (setting [9]), the “Average reduction in conversion” value is listed as 14.1%.
As to `CC(C(=O)SCCNC(=O)CCNC(=O)C(O)C(C)(C)COP(=O)(O)OP(=O)(O)OCC1OC(n2cnc3c(N)ncnc32)C(O)C1OP(=O)(O)O)c1ccc(-c2ccccc2)c(F)c1` (stereo not shown) [Flurbiprofenoyl-CoA], in series [3] (setting [9]), the “Average reduction in conversion” value is recorded as 3.5%.
In the case of `CC(C)Cc1ccc(C(C)C(=O)SCCNC(=O)CCNC(=O)C(O)C(C)(C)COP(=O)(O)OP(=O)(O)OCC2OC(n3cnc4c(N)ncnc43)C(O)C2OP(=O)(O)O)cc1` (stereo not shown) [Ibuprofenoyl-CoA], the “Average reduction in conversion” value was 14.5% in series [3] (setting [9]) and 11% in series [3] (setting [10]).
`CC(C(=O)SCCNC(=O)CCNC(=O)C(O)C(C)(C)COP(=O)(O)OP(=O)(O)OCC1OC(n2cnc3c(N)ncnc32)C(O)C1OP(=O)(O)O)c1cccc(C(=O)c2ccccc2)c1` (stereo not shown) [Ketoprofenoyl-CoA]: the “Average reduction in conversion” value in series [3] (setting [9]) is recorded as 4.5%.
Still for that read-out and setting: for `COc1ccc2cc(C(C)C(=O)SCCNC(=O)CCNC(=O)C(O)C(C)(C)COP(=O)(O)OP(=O)(O)OCC3OC(n4cnc5c(N)ncnc54)C(O)C3OP(=O)(O)O)ccc2c1` (stereo not shown) [Naproxenoyl-CoA] the value was 4.7%.
Take `CCCCCCCC[C@@H](C)C(=O)SCCNC(=O)CCNC(=O)[C@H](O)C(C)(C)COP(=O)(O)OP(=O)(O)OC[C@H]1O[C@@H](n2cnc3c(N)ncnc32)[C@H](O)[C@@H]1OP(=O)(O)O` [R-2-methyldecanoyl-CoA]: the “Average reduction in conversion” value in series [3] (setting [10]) was determined as 13.6%.
For the molecule `CCCCCCCCC(C)C(=O)SCCNC(=O)CCNC(=O)[C@H](O)C(C)(C)COP(=O)(O)OP(=O)(O)OC[C@H]1O[C@@H](n2cnc3c(N)ncnc32)[C@H](O)[C@@H]1OP(=O)(O)O` (stereo partly shown) [S-2-methyldecanoyl-CoA], the Vmax at Human AMACR [4] was 39.3 nmol·min^−1·mg^−1 polypeptide. For the same molecule, the “Average reduction in conversion” value in series [3] (setting [10]) stood at 7.2%.

B1: Human AMACR (Homo sapiens) (protein)
chain: MALQGISVVELSGLAPGPFCAMVLADFGARVVRVDRPGSRYDVSRLGRGKRSLVLDLKQPRGAAVLRRLCKRSDVLLEPFRRGVMEKLQLGPEILQRENPRLIYARLSGFGQSGSFCRLAGHDINYLALSGVLSKIGRSGENPYAPLNLLADFAGGGLMCALGIIMALFDRTRTGKGQVIDANMVEGTAYLSSFLWKTQKLSLWEAPRGQNMLDGGAPFYTTYRTADGEFMAVGAIEPQFYELLIKGLGLKSDELPNQMSMDDWPEMKKKFADVFAEKTKAEWCQIFDGTDACVTPVLTFEEVVHHDHNKERGSFITSEEQDVSPRPAPLLLNTPAIPSFKRDPFIGEHTEEILEEFGFSREEIYQLNSDKIIESNKVKASL
notes: inferred only from purification by metal-chelate chromatography; made in house; host or cells: E. coli Rosetta2 (DE3)
Broadly, the kcat/Km is the second-order rate constant that governs catalysis at low substrate concentration. Consider B1, for which, in series [5], the Km worked out at 40 µM, the catalytic constant (kcat) amounted to 0.0397 s⁻¹ and the kcat/Km was determined as 993 M⁻¹ s⁻¹. In series [6], the Km turned out to be 277 µM, the kcat is 0.0310 s⁻¹ and the kcat/Km worked out at 112 M⁻¹ s⁻¹.
